Results as given in patent US20250381198A1 (Melt Pharmaceuticals, Inc., priority 2024, published 2025).

Experiments:
[1] = test system: subjects undergoing cataract extraction with lens replacement (CELR); assay: Phase 2: subjects completing the surgery (and without interruption); format: in vivo, human; conditions: Visit 2 (Day 1); full analysis set
Protocol: (§1) The number of subjects achieving analgesia response (observed) in the full analysis set was determined. Success in analgesia response was defined as NPRS<4 at the available at the available four intraoperative timepoints and a failure otherwise (e.g., any interoperative pain rescue was assumed to be a failure. Results are provided in TABLE 25. The number of subjects completing the surgery is provided in TABLE 26, and the number of subjects completing the surgery without interruption is provided in TABLE 27. For this measure, subjects completing the surgery without interruption (other than rescue medication) due to pain or anxiety were considered successes. The number of subjects requiring rescue sedative medication and those requiring analgesic medication are provided in TABLES 28 and 29, respectively. For all TABLES 25-29, p-Values between pairs of treatments were calculated and are provided.

[2] = test system: subjects undergoing cataract extraction with lens replacement (CELR); assay: Phase 2: subjects requiring rescue sedative medication; format: in vivo, human; conditions: Visit 2 (Day 1); full analysis set
Protocol: as §1

[3] = test system: subjects undergoing cataract extraction with lens replacement (CELR); assay: Phase 2: subjects requiring rescue analgesic medication; format: in vivo, human; conditions: Visit 2 (Day 1); full analysis set
Protocol: as §1

[4] = test system: subjects undergoing cataract extraction with lens replacement (CELR); assay: Phase 2: subjects wanting study drug again for a second surgery (11-point Likert scale); format: in vivo, human; conditions: for Want Study Drug Again, Mean / Want Study Drug Again, Median: 11-point Likert scale of 0 (not likely at all) to 10 (extremely likely), full analysis set
Source text: Post-operation, subjects were asked whether they would want the study drug again for a second surgery using an 11-point Likert scale of 0 (not likely at all) to 10 (extremely likely).

[5] = test system: subjects undergoing cataract extraction with lens replacement (CELR); assay: Phase 2: mean intraoperative analgesia by the numeric pain rating scale; conditions: for Intraoperative Numeric Pain Rating Scale, Mean / Intraoperative Numeric Pain Rating Scale, Median: full analysis set
Protocol: Mean intraoperative analgesia by the numeric pain rating scale (Min=0; Max=9) was assayed for each subject in the full analysis set at intraoperative timepoints: insertion of the speculum; corneal incision; insertion of phacoemulsion probe; insertion of the synthetic replacement lens. An average of the available timepoints was also calculated.

[6] = 11-point Likert scale, unpaired t-test
[7] = Average of Available Timepoints, adjusted for site (carry forward)
[8] = Average of Available Timepoints, adjusted for site (carry forward), repeated measures model with covariates for study center
[9] = Average of Available Timepoints, carry forward
[10] = Average of Available Timepoints, carry forward, repeated measures model
[11] = Average of Available Timepoints, observed
[12] = Average of Available Timepoints, observed, repeated measures model
[13] = Corneal incision, adjusted for site (carry forward)
[14] = Corneal incision, carry forward
[15] = Insertion of the phacoemulsion probe, adjusted for site (carry forward)
[16] = Insertion of the phacoemulsion probe, carry forward
[17] = Insertion of the phacoemulsion probe, observed
[18] = Insertion of the speculum, adjusted for site (carry forward)
[19] = Insertion of the speculum, carry forward
[20] = Insertion of the speculum, observed
[21] = Insertion of the synthetic replacement lens, adjusted for site (carry forward)
[22] = Insertion of the synthetic replacement lens, carry forward
[23] = Insertion of the synthetic replacement lens, observed
[24] = adjusted for site (carry forward), repeated measures model with covariates for study center
[25] = carry forward, repeated measures model
[26] = observed, repeated measures model

With Cc1ncc2n1-c1ccc(Cl)cc1C(c1ccccc1F)=NC2 [Midazolam 3 mg] the “Subjects Completing the Surgery without Interruption, No, %” value [1] was “(0) %”, the “Subjects Completing the Surgery without Interruption, Yes, %” value [1] was “(100.0) %” and the “Subjects Requiring Rescue Sedative Medication, Intraoperatively, %” value [2] was “(8.6) %”. For the same compound, the “Subjects Requiring Rescue Sedative Medication, No, %” value [2] was “(65.4) %”, the “Subjects Requiring Rescue Sedative Medication, Pre-operatively, %” value [2] was “(25.9) %” and the “Subjects Requiring Rescue Sedative Medication, Yes, %” value [2] was “(34.6) %”. The “Subjects Requiring Rescue Analgesic Medication, No, %” value [3] was “(56.8) %”, the “Subjects Requiring Rescue Analgesic Medication, Yes, %” value [3] was “(43.2) %” and the “Want Study Drug Again, Mean” value [4] was 8.4. The “Want Study Drug Again, Median” value [4] was 10.0, the “Want Study Drug Again, Mean Difference Versus Ketamine” value [4, 6] was 0.80 and the “Want Study Drug Again, Mean Difference Versus Placebo” value [4, 6] was 0.75. The “Intraoperative Numeric Pain Rating Scale, Mean” value [5, 7] was 2.37, the “Intraoperative Numeric Pain Rating Scale, Median” value [5, 7] was 2.00 and the “Intraoperative Numeric Pain Rating Scale, LS Mean” value [5, 8] was 2.12. For the same compound, the “Intraoperative Numeric Pain Rating Scale, Mean” value [5, 9] was 2.37, the “Intraoperative Numeric Pain Rating Scale, Median” value [5, 9] was 2.00 and the “Intraoperative Numeric Pain Rating Scale, LS Mean” value [5, 10] was 2.37. For the same compound, the “Intraoperative Numeric Pain Rating Scale, Mean” value [5, 11] was 2.18, the “Intraoperative Numeric Pain Rating Scale, Median” value [5, 11] was 2.00 and the “Intraoperative Numeric Pain Rating Scale, LS Mean” value [5, 12] was 2.46. For the same compound, the “Intraoperative Numeric Pain Rating Scale, Mean” value [5, 13] was 1.8, the “Intraoperative Numeric Pain Rating Scale, Median” value [5, 13] was 1.0 and the “Intraoperative Numeric Pain Rating Scale, Mean” value [5, 14] was 1.8. For the same compound, the “Intraoperative Numeric Pain Rating Scale, Median” value [5, 14] was 1.0, the “Intraoperative Numeric Pain Rating Scale, Mean” value ([5]; Corneal incision, observed) was 1.8 and the “Intraoperative Numeric Pain Rating Scale, Median” value ([5]; Corneal incision, observed) was 1.0. The “Intraoperative Numeric Pain Rating Scale, Mean” value [5, 15] was 2.9, the “Intraoperative Numeric Pain Rating Scale, Median” value [5, 15] was 3.0 and the “Intraoperative Numeric Pain Rating Scale, Mean” value [5, 16] was 2.9. The “Intraoperative Numeric Pain Rating Scale, Median” value [5, 16] was 3.0, the “Intraoperative Numeric Pain Rating Scale, Mean” value [5, 17] was 2.5 and the “Intraoperative Numeric Pain Rating Scale, Median” value [5, 17] was 2.0. The “Intraoperative Numeric Pain Rating Scale, Mean” value [5, 18] was 1.1, the “Intraoperative Numeric Pain Rating Scale, Median” value [5, 18] was 0.0 and the “Intraoperative Numeric Pain Rating Scale, Mean” value [5, 19] was 1.1. For the same compound, the “Intraoperative Numeric Pain Rating Scale, Median” value [5, 19] was 0.0, the “Intraoperative Numeric Pain Rating Scale, Mean” value [5, 20] was 1.1 and the “Intraoperative Numeric Pain Rating Scale, Median” value [5, 20] was 0.0. For the same compound, the “Intraoperative Numeric Pain Rating Scale, Mean” value [5, 21] was 3.6, the “Intraoperative Numeric Pain Rating Scale, Median” value [5, 21] was 4.0 and the “Intraoperative Numeric Pain Rating Scale, Mean” value [5, 22] was 3.6. The “Intraoperative Numeric Pain Rating Scale, Median” value [5, 22] was 4.0, the “Intraoperative Numeric Pain Rating Scale, Mean” value [5, 23] was 2.9 and the “Intraoperative Numeric Pain Rating Scale, Median” value [5, 23] was 3.0. For the same compound, the “Numeric Pain Rating Scale, LS Mean Difference Versus Ketamine” value [5, 24] was 0.22, the “Numeric Pain Rating Scale, LS Mean Difference Versus Placebo” value [5, 24] was −0.08 and the “Numeric Pain Rating Scale, LS Mean Difference Versus Ketamine” value [5, 25] was 0.20. For the same compound, the “Numeric Pain Rating Scale, LS Mean Difference Versus Placebo” value [5, 25] was −0.12, the “Numeric Pain Rating Scale, LS Mean Difference Versus Ketamine” value [5, 26] was 0.24 and the “Numeric Pain Rating Scale, LS Mean Difference Versus Placebo” value [5, 26] was −0.01.
With CNC1(c2ccccc2Cl)CCCCC1=O (centres unmarked) [Ketamine 50 mg] the “Subjects Completing the Surgery without Interruption, No, %” value [1] was “(6.3) %”, the “Subjects Completing the Surgery without Interruption, Yes, %” value [1] was “(93.7) %” and the “Subjects Requiring Rescue Sedative Medication, Intraoperatively, %” value [2] was “(6.3) %”. For the same compound, the “Subjects Requiring Rescue Sedative Medication, No, %” value [2] was “(63.3) %”, the “Subjects Requiring Rescue Sedative Medication, Pre-operatively, %” value [2] was “(30.4) %” and the “Subjects Requiring Rescue Sedative Medication, Yes, %” value [2] was “(36.7) %”. For the same compound, the “Subjects Requiring Rescue Analgesic Medication, No, %” value [3] was “(59.5) %”, the “Subjects Requiring Rescue Analgesic Medication, Yes, %” value [3] was “(40.5) %” and the “Want Study Drug Again, Mean” value [4] was 7.6. The “Want Study Drug Again, Median” value [4] was 10.0, the “Want Study Drug Again, Mean Difference Versus Placebo” value [4, 6] was −0.05 and the “Intraoperative Numeric Pain Rating Scale, Mean” value [5, 7] was 2.16. The “Intraoperative Numeric Pain Rating Scale, Median” value [5, 7] was 1.75, the “Intraoperative Numeric Pain Rating Scale, LS Mean” value [5, 8] was 1.89 and the “Intraoperative Numeric Pain Rating Scale, Mean” value [5, 9] was 2.16. For the same compound, the “Intraoperative Numeric Pain Rating Scale, Median” value [5, 9] was 1.75, the “Intraoperative Numeric Pain Rating Scale, LS Mean” value [5, 10] was 2.16 and the “Intraoperative Numeric Pain Rating Scale, Mean” value [5, 11] was 2.00. The “Intraoperative Numeric Pain Rating Scale, Median” value [5, 11] was 1.75, the “Intraoperative Numeric Pain Rating Scale, LS Mean” value [5, 12] was 2.22 and the “Intraoperative Numeric Pain Rating Scale, Mean” value [5, 13] was 1.8. The “Intraoperative Numeric Pain Rating Scale, Median” value [5, 13] was 1.0, the “Intraoperative Numeric Pain Rating Scale, Mean” value [5, 14] was 1.8 and the “Intraoperative Numeric Pain Rating Scale, Median” value [5, 14] was 1.0. For the same compound, the “Intraoperative Numeric Pain Rating Scale, Mean” value ([5]; Corneal incision, observed) was 1.7, the “Intraoperative Numeric Pain Rating Scale, Median” value ([5]; Corneal incision, observed) was 1.0 and the “Intraoperative Numeric Pain Rating Scale, Mean” value [5, 15] was 2.5. The “Intraoperative Numeric Pain Rating Scale, Median” value [5, 15] was 2.0, the “Intraoperative Numeric Pain Rating Scale, Mean” value [5, 16] was 2.5 and the “Intraoperative Numeric Pain Rating Scale, Median” value [5, 16] was 2.0. The “Intraoperative Numeric Pain Rating Scale, Mean” value [5, 17] was 2.1, the “Intraoperative Numeric Pain Rating Scale, Median” value [5, 17] was 2.0 and the “Intraoperative Numeric Pain Rating Scale, Mean” value [5, 18] was 1.3. The “Intraoperative Numeric Pain Rating Scale, Median” value [5, 18] was 1.0, the “Intraoperative Numeric Pain Rating Scale, Mean” value [5, 19] was 1.1 and the “Intraoperative Numeric Pain Rating Scale, Median” value [5, 19] was 1.0. The “Intraoperative Numeric Pain Rating Scale, Mean” value [5, 20] was 1.1, the “Intraoperative Numeric Pain Rating Scale, Median” value [5, 20] was 1.0 and the “Intraoperative Numeric Pain Rating Scale, Mean” value [5, 21] was 3.3. For the same compound, the “Intraoperative Numeric Pain Rating Scale, Median” value [5, 21] was 3.0, the “Intraoperative Numeric Pain Rating Scale, Mean” value [5, 22] was 3.3 and the “Intraoperative Numeric Pain Rating Scale, Median” value [5, 22] was 3.0. The “Intraoperative Numeric Pain Rating Scale, Mean” value [5, 23] was 2.5, the “Intraoperative Numeric Pain Rating Scale, Median” value [5, 23] was 2.0 and the “Numeric Pain Rating Scale, LS Mean Difference Versus Placebo” value [5, 24] was −0.30. The “Numeric Pain Rating Scale, LS Mean Difference Versus Placebo” value [5, 25] was −0.32 and the “Numeric Pain Rating Scale, LS Mean Difference Versus Placebo” value [5, 26] was −0.26.
